Assay results reported in ChEMBL document CHEMBL1135239, “Imidazo[5,1-f]triazin-4(3H)-ones, a new class of potent PDE 5 inhibitors” (Bioorg Med Chem Lett, 2002).

Assays:
Phosphodiesterase 3 = Phosphodiesterase 3 (Homo sapiens, UniProt Q14432+Q13370); experiment: Inhibition of Phosphodiesterase 3; type: protein assay
Phosphodiesterase 1 = Phosphodiesterase 1 (Bos taurus, UniProt Q01061+P14100); experiment: Inhibition of Phosphodiesterase 1; type: protein assay
Phosphodiesterase 4 = Phosphodiesterase 4 (Homo sapiens, UniProt P27815+Q08499+Q07343+Q08493); experiment: Inhibition of Phosphodiesterase 4; type: protein assay
[1] = biological target: cGMP-specific 3',5'-cyclic phosphodiesterase (Homo sapiens, UniProt O76074)
Oryctolagus cuniculus = experiment: In vivo minimal effective dose for inhibition of phosphodiesterase in conscious rabbit model by peroral administration; type: functional; settings: po, read-out: MED

| SMILES | IC50 (Phosphodiesterase 3) | IC50 (Phosphodiesterase 1) | IC50 (Phosphodiesterase 4) | IC50 [1] | minimal effective dose (Oryctolagus cuniculus) |
| --- | --- | --- | --- | --- | --- |
| CCCc1nc(C)c2c(=O)[nH]c(-c3cc(S(=O)(=O)N4CCN(C)CC4)ccc3OCC)nn12 | > 500 nM | 300 nM |  |  |  |
| CCCc1nc(C)c2c(=O)[nH]c(-c3ccccc3OCC)nn12 | > 500 nM | 300 nM | > 500 nM | 5 nM |  |
| CCCOc1ccccc1-c1nc2c(ncn2CCC)c(=O)[nH]1 | > 500 nM |  | > 500 nM | 10 nM |  |

More lines, main results first:

| IC50 (Phosphodiesterase 3) | IC50 (Phosphodiesterase 1) | IC50 (Phosphodiesterase 4) | IC50 [1] | SMILES | minimal effective dose (Oryctolagus cuniculus) |
| --- | --- | --- | --- | --- | --- |
| > 500 nM |  | > 500 nM |  | CCCOc1ccc(S(=O)(=O)N2CCN(C)CC2)cc1-c1nc2c(ncn2CCC)c(=O)[nH]1 |  |
| > 500 nM |  | > 500 nM | 40 nM | CCCc1nn(C)c2c(=O)[nH]c(-c3ccccc3OCC)nc12 |  |
|  | 180 nM |  |  | CCCc1nc(C)c2c(O)nc(-c3cc(S(=O)(=O)N4CCN(CC)CC4)ccc3OCC)nn12.Cl [VARDENAFIL HYDROCHLORIDE] | 3 mg/kg |
